Measured values reported in US20240415878A1, “Compositions and Methods for Modulating Mitochondrial Function” (Board of Regents, The University of Texas System, priority 2021, published 2024).

Key:
WT hepatocytes = assay: Mitochondrial oxygen consumption rate and extracellular acidification rate (Seahorse); type: cell-based, murine
Description: CPACC treatment enhances adipose browning and lowers whole body weight. Given the potent mMg^2+ uptake inhibiting properties and low toxicity of CPACC, we hypothesized that CPACC could mimic Mrs2^−/− cellular phenotype. WT hepatocytes isolated from over 12 months old mice were treated with 50 μM CPACC for 48 hours. Control and CPACC treated hepatocytes were stained with BODIPY and TMRE for intracellular tracing using confocal imaging. […] Next it was determined if CPACC treatment affects the mitochondrial oxygen consumption rate. Freshly isolated WT hepatocytes were treated with 5-25 μM concentrations of CPACC for 16 hours before measurement of oxygen consumption rate. […] Since it was observed an enhancement of basal OCR in CPACC treated hepatocytes, the extracellular acidification rate was measured in control and CPACC treated hepatocytes and found it to be higher in the CPACC condition indicating higher glycolytic activity (FIG. 11G). […]
Mitochondrial oxygen consumption rate. […] Oxygen consumption rate (OCR) was measured at 37° C. in an XF96 extracellular flux analyzer (Seahorse Bioscience, Agilent) calibrated using Seahorse XF Calibrant solution (Seahorse Bioscience, Agilent) in a CO2-free incubator overnight. […] Data was collected using Agilent Seahorse Wave 2.6.1 Desktop software and analyzed using GraphPad Prism version 8 (Irrinki et al., 2011; Tomar et al., 2016).

Mrs2 = target: T1, Mrs2 (Mus musculus, UniProt Q5NCE8); assay: Mrs2 inhibition in intact hepatocytes loaded with Mag-Green-AM, confocal, L-lactate stimulation; type: cell-based, murine; conditions: 5 μM
T1 construct: endogenous in cells; host or cells: primary murine hepatocytes (C57BL/6J mice)
T1 sequence (Q5NCE8 54-434): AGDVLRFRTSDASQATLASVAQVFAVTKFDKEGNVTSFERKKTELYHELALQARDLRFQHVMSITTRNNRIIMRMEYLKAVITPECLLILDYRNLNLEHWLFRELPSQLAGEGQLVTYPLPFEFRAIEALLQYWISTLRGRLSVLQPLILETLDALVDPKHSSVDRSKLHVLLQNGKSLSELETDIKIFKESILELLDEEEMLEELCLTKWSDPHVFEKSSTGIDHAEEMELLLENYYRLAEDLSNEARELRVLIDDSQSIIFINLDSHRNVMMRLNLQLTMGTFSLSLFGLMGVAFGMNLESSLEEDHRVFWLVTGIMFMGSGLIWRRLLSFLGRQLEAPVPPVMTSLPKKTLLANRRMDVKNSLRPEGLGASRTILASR
Description: Bacterial CorA forms a pentameric complex that selectively drives Mg2+ uptake in an electrogenic manner. […] Mrs2 is the eukaryotic homologue of CorA and contains two transmembrane domains with a well-conserved F/Y-G-M-N motif; therefore, CorA blockers were tested to determine if they alter Mrs2-mediated mMg^2+ uptake (Moomaw and Maguire, 2008). Digitonin permeabilized hepatocytes were utilized to measure the inhibitory effect and determine its IC50. Permeabilized cells were treated with CPACC followed by a 1 mM bolus of MgCl2 (FIG. 10B). A 1 mM Mg^2+ bolus was added after baseline recording, and the extramitochondrial Mg^2+ clearance was used as a read-out for Mrs2-mediated mMg^2+ uptake using Mag-Green as a Mg^2+ indicator. […] We next investigated Mrs2 inhibition in intact hepatocytes loaded with Mag-Green-AM. […] Next CPACC was examined to determine if it had any effect on MCU-mediated mCa^2+ uptake in permeabilized cells. […] The availability of the compound to intact cells was measured using graphite furnace atomic absorption spectroscopy (GFAAS) and bicinchoninic acid in parallel. […] Encouraged by the potent inhibitory effect of CPACC and cellular permeability, we next measured the cytotoxicity of CPACC in cells. […]
Evaluation of dose dependent Mrs2 inhibition by confocal live cell imaging system. […] Data was quantified using Leica Application Suite X.

[NH2][Co]([NH2])([NH2])([NH2])([NH2])[Cl] [CPACC, chloropentaammine cobalt (III) chloride]
maximal OCR (WT hepatocytes; 5-25 μM, 16 hours): without a significant effect
extracellular acidification rate (WT hepatocytes; treated versus control hepatocytes): higher
Mitochondrial Mg^2+ uptake following L-lactate stimulation (Mrs2): significantly inhibited
